Laboratory results reported in US9301961B2, “Autoimmune and inflammatory disorder therapy” (Katholieke Universiteit Leuven, K.U. Leuven R&D, priority 2011, dated 2016).
pIC50: −log10 of the molar value.

How the values were obtained:
PI4KA (PI4K alpha) = target: T1, PI4KA (PI4K alpha) (Homo sapiens, UniProt P42356); assay: Commercial kinase activity assay (Invitrogen, ADP TR-FRET); assay type: biochemical; details: 10 μM test compound
T1 construct: purchased Invitrogen

LOK = target: T2, LOK (Homo sapiens, UniProt O94804); assay: Kinase-tagged phage competition binding assay (qPCR), 382-kinase library
T2 construct: made in house; host or cells: E. coli BL21-derived host (T7 phage) or HEK-293

LOK (h) = target: T3, LOK (h) (Homo sapiens, UniProt O94804); assay: Commercial kinase activity assay (Millipore, 33P-ATP filter); assay type: biochemical; details: 10 μM test compound
T3 construct: purchased Millipore
Experimental: LOK (h) was incubated with 8 mM MOPS pH 7.0, 0.2 mM EDTA, 250 μM […], 10 mM MgAcetate and [γ-^33P-ATP] (specific activity approx. 500 cpm/pmol, concentration as required). The reaction was initiated by the addition of the MgATP mix. After incubation for 40 minutes at room temperature, the reaction was stopped by the addition of 3% phosphoric acid solution. 10 μL of the reaction was then spotted onto a P30 filtermat and washed three times for 5 minutes in 75 mM phosphoric acid and once in methanol prior to drying and scintillation counting. PI3K p110β/p85α (h) PI3K (p110β/p85α) (h) was incubated in assay buffer containing 10 μM phosphatidylinositol-4,5-bisphosphate and MgATP (concentration as required). The reaction was initiated by the addition of the MgATP mix. After incubation for 30 minutes at room temperature, the reaction was stopped by the addition of stop solution containing EDTA and biotinylated phosphatidylinositol-3,4,5-trisphosphate. Finally, detection buffer was added, which contains europium-labelled anti-GST monoclonal antibody, GST-tagged GRP1 PH domain and streptavidinallophycocyanin. The plate was then read in time-resolved fluorescence mode and the homogenous time-resolved fluorescence (HTRF®) signal determined according to the formula HTRF=10000×(Em665nm/Em620 nm). YSK4 (h) YSK4 (h) was incubated with 8 mM MOPS pH 7.0, 0.2 mM EDTA, 250 […], 10 mM MgAcetate and [γ-^33P-ATP] (specific activity approx. 500 cpm/pmol, concentration as required). The reaction was initiated by the addition of the MgATP mix. After incubation for 40 minutes at room temperature, the reaction was stopped by the addition of 3% phosphoric acid solution. 10 μL of the reaction was then spotted onto a P30 filtermat and washed three times for 5 minutes in 75 mM phosphoric acid and once in methanol prior to drying and scintillation counting. PI4KA (PI4K alpha) The 2× PI4KA (PI4K alpha)/PI Lipid Kinase Substrate mixture was prepared in 20 mM Tris, pH 7.5, 0.4% Triton X-100, 5 mM MgCl2, 0.5 mM EGTA. The final 10 μL Kinase Reaction consisted of 75-300 ng PI4KA (PI4K alpha) and 100 μM PI Lipid Kinase Substrate in 7.5 mM HEPES, 10 mM Tris, pH 7.5, 0.2% Triton X-100, 2.5 mM MgCl2, 0.25 mM EGTA. After the 1 hour Kinase Reaction incubation, 5 μL of Detection Mix consisting of a europium labeled anti-ADP antibody, an Alexa Fluor® 647 labeled ADP tracer, and EDTA (to stop the kinase reaction) was added to the assay well. ADP formed by the kinase reaction (in the absence of an inhibitor) displaced the Alexa Fluor® 647 labeled ADP tracer from the antibody, resulting in a decrease in the TR-FRET signal. […] PI4KB (PI4K beta) The 2× PI4KB (PI4K beta)/PI Lipid Kinase Substrate mixture was prepared in 50 mM HEPES pH 7.5, 0.1% CHAPS, 1 mM EGTA, 4 mM MgCl2. […]

PIK3CB = target: T4, PIK3CB (Homo sapiens, UniProt P42338); assay: Kinase-tagged phage competition binding assay (qPCR), 382-kinase library
T4 construct: made in house; host or cells: E. coli BL21-derived host (T7 phage) or HEK-293

[1] = 10 μM compound, read-out: % Inhibition of substrate binding
[2] = stated for the 8 kinases of Table 1

T2 sequence (O94804 whole entry): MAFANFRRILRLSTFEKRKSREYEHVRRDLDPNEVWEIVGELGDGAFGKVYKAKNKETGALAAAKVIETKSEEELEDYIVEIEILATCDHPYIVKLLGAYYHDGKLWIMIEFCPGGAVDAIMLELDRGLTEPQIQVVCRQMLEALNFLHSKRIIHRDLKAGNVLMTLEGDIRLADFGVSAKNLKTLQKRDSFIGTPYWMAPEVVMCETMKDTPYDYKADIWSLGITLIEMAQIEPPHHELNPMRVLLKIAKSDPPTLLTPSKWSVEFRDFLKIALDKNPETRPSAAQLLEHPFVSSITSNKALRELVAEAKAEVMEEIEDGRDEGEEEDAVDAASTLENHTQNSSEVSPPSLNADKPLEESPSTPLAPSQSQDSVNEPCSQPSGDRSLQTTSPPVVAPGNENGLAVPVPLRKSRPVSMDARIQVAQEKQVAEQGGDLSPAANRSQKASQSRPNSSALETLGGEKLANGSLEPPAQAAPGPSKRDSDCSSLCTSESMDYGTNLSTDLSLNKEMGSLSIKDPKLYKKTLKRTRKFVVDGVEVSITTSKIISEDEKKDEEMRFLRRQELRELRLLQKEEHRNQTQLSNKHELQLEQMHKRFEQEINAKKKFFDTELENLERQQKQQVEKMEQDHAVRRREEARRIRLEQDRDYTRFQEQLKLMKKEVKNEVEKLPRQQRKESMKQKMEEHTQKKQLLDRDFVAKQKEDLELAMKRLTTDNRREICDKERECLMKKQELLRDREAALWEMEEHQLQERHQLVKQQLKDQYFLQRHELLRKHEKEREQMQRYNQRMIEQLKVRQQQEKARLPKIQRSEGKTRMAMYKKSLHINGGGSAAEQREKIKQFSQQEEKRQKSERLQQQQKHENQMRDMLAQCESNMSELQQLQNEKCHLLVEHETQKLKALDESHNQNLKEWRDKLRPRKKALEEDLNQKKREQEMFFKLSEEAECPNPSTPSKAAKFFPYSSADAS
T4 sequence (P42338 whole entry): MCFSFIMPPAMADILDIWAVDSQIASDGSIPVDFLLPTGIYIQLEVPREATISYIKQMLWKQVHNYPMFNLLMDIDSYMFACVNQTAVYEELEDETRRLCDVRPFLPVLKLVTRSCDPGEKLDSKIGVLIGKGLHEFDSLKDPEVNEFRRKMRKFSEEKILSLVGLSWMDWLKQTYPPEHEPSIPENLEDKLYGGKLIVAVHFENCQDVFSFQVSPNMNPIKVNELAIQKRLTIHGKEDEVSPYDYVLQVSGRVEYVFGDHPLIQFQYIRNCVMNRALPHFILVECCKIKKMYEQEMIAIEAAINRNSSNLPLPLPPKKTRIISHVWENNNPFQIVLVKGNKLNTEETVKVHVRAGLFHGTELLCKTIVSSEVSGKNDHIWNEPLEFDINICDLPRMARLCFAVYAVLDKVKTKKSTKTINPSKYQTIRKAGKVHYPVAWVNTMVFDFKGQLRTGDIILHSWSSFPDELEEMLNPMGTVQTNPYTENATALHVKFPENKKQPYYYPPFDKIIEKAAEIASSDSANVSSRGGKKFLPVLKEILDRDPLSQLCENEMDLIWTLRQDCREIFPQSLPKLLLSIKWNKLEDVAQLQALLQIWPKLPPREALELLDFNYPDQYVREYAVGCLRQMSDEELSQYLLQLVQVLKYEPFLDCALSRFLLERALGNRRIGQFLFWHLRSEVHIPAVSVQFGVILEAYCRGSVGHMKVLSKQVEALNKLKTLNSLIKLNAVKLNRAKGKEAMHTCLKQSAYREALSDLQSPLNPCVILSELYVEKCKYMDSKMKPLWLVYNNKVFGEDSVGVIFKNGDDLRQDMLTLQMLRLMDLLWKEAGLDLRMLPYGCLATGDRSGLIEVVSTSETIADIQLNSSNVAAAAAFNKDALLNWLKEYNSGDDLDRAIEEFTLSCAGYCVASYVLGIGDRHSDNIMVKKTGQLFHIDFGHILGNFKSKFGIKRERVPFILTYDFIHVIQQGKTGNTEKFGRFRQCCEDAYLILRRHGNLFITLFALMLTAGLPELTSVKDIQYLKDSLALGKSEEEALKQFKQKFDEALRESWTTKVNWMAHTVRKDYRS
T3 sequence (O94804 whole entry): as the sequence (O94804 whole entry) above
T1 sequence (P42356 whole entry): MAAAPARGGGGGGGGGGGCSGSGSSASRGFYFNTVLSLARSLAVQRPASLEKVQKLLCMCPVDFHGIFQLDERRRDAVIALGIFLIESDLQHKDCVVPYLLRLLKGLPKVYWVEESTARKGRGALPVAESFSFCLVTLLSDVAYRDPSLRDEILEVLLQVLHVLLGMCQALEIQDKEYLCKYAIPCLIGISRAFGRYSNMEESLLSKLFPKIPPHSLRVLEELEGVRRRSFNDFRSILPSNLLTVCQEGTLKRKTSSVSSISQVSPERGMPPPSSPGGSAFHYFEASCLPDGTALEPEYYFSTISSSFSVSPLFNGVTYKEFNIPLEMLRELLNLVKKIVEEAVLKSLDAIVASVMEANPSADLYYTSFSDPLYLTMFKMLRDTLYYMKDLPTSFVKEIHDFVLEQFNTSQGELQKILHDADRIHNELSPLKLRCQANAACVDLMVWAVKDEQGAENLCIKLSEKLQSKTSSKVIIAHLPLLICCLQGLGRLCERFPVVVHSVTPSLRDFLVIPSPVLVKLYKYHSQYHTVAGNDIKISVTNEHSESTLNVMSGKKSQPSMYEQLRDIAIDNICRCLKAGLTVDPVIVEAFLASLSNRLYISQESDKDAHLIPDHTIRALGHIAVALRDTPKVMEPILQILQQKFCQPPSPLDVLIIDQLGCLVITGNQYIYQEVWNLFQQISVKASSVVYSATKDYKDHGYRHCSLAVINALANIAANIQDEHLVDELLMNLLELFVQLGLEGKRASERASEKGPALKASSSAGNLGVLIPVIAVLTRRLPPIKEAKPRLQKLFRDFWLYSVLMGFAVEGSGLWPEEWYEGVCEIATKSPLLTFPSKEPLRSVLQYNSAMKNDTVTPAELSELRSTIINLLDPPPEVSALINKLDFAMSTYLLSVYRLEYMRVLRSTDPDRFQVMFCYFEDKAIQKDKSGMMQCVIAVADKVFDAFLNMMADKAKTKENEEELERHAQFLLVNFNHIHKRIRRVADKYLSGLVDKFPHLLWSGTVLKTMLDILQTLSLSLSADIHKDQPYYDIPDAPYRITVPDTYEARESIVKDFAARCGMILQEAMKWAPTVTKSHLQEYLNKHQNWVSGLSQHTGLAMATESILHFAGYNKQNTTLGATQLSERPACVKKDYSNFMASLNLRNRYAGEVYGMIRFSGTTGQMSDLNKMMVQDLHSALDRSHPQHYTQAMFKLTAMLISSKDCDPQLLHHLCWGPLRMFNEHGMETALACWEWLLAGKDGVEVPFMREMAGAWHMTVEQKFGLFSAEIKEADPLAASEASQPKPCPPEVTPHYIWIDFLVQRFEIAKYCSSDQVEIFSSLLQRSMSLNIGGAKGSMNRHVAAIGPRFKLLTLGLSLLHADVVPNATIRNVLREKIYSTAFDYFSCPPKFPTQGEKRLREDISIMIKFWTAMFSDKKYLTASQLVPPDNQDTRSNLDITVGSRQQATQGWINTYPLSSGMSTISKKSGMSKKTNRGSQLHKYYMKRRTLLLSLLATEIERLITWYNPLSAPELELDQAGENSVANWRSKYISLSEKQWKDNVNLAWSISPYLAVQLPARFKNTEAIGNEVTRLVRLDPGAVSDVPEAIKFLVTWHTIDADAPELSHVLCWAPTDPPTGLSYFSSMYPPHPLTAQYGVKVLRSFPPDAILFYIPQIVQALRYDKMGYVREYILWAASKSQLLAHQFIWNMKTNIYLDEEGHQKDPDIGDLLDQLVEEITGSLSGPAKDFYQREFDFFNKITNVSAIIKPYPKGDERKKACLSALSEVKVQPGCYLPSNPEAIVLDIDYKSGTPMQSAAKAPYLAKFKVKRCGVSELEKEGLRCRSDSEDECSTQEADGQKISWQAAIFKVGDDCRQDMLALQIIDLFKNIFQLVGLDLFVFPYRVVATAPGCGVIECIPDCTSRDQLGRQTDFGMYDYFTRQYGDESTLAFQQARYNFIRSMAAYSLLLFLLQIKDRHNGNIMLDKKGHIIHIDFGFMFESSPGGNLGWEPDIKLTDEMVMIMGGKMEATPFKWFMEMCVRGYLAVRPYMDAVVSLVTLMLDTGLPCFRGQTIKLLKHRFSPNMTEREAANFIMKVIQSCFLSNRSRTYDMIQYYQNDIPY

In the case of `Nc1nc(N2CCN(C(=O)COc3ccc(Cl)cc3)CC2)c2nc(-c3cccnc3)sc2n1` [formula (1), 5-amino-7-[4-(4-chlorophenoxyacetyl)piperazin-1-yl]-2-(pyridin-3-yl)thiazolo[5,4-d]pyrimidine], the Kinase activity (PI4KA (PI4K alpha)) was 99 percentage of control, the inhibition at 10 µM (LOK; [1]) was 100% and the pIC50 (LOK; [2]) was over 5.00. For the same molecule, the Kinase activity (LOK (h)) was 117 percentage of control, the inhibition at 10 µM (PIK3CB; [1]) was 56% and the pIC50 (PIK3CB; [2]) was over 5.00.
